The record followed here is publication PMC10997603, “Cryo-EM structures of pannexin 1 and 3 reveal differences among pannexin isoforms” (Nature Communications, 2024).

Where a chain is given by its changes, count along the chain named. Names may count otherwise. Where two headings read alike, the source gives them in different places.

In data set [1] the target is T1, PANX1 (PANX1WT) (Homo sapiens, UniProt Q96RD7, R75D/W74R).
T1 construct: full-length; C-terminal TEV site-eGFP-8xHis, GFP/His cut by TEV for purified protein; HEK293S GnTI- (BacMam), GDN-solubilised homoheptamer; transiently transfected HEK293 for patch clamp
T1 sequence (Q96RD7 whole entry W74R/R75D): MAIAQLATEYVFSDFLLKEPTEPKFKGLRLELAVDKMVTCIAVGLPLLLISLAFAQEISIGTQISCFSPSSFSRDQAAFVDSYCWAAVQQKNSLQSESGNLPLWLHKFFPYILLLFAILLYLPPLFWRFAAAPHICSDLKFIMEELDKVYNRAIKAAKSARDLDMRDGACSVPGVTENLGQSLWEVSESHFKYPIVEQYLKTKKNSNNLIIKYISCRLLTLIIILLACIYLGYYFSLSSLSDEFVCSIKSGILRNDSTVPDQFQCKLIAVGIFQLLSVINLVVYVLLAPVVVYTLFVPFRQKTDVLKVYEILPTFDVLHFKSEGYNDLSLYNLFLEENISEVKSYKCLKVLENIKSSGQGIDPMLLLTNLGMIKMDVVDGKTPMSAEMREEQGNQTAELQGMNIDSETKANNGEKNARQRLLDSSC
Briefly: microscale thermophoresis. It counts as binding.

The target of data set [2] is T2, PANX1 (PANX1WT) (Homo sapiens, UniProt Q96RD7, R217H).
T2 construct: full-length; C-terminal TEV site-eGFP-8xHis, GFP/His cut by TEV for purified protein; HEK293S GnTI- (BacMam), GDN-solubilised homoheptamer; transiently transfected HEK293 for patch clamp
T2 sequence (Q96RD7 whole entry R217H): as the sequence (Q96RD7 whole entry W74R/R75D) above, with R74W, D75R, R217H counted along it
Put plainly: microscale thermophoresis. To be noted: read-out: apparent binding affinity.

The target in data set [3] is T3, PANX1 (PANX1WT) (Homo sapiens, UniProt Q96RD7).
T3 construct: full-length; C-terminal TEV site-eGFP-8xHis, GFP/His cut by TEV for purified protein; HEK293S GnTI- (BacMam), GDN-solubilised homoheptamer; transiently transfected HEK293 for patch clamp
Briefly: microscale thermophoresis. The class given is binding.

Data set [4] has as its target T4, PANX3 (PANX3WT) (Homo sapiens, UniProt Q96QZ0).
T4 construct: full-length, 392 residues; C-terminal TEV site-eGFP-8xHis, GFP/His cut by TEV for purified protein; HEK293S GnTI- (BacMam), GDN-solubilised homoheptamer; transiently transfected HEK293 for patch clamp
T4 sequence (Q96QZ0 1-392): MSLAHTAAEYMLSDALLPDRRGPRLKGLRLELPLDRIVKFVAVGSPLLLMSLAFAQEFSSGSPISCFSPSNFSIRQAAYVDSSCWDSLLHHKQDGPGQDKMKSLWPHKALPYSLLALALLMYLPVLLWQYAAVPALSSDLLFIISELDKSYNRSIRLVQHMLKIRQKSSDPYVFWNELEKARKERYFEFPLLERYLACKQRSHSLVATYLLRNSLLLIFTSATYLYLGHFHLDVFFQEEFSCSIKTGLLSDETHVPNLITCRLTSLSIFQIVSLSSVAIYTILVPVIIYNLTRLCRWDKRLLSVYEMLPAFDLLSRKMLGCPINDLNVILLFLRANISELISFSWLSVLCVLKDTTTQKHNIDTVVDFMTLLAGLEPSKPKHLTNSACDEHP
Briefly: microscale thermophoresis. The class given is binding. To be noted: read-out: affinity.

In data set [5] the target is T5, PANX1 (PANX1WT) (Homo sapiens, UniProt Q96RD7, K24A).
T5 construct: full-length; C-terminal TEV site-eGFP-8xHis, GFP/His cut by TEV for purified protein; HEK293S GnTI- (BacMam), GDN-solubilised homoheptamer; transiently transfected HEK293 for patch clamp
T5 sequence (Q96RD7 whole entry K24A): as the sequence (Q96RD7 whole entry W74R/R75D) above, with K24A, R74W, D75R counted along it
Briefly: microscale thermophoresis. The class given is binding.

Data set [6] has as its target T6, PANX1 (PANX1WT) (Homo sapiens, UniProt Q96RD7, R75A).
T6 construct: full-length; C-terminal TEV site-eGFP-8xHis, GFP/His cut by TEV for purified protein; HEK293S GnTI- (BacMam), GDN-solubilised homoheptamer; transiently transfected HEK293 for patch clamp
Briefly: microscale thermophoresis. To be noted: read-out: binding affinity.

In data set [7] the target is T7, PANX1 (PANX1WT) (Homo sapiens, UniProt Q96RD7, W74R/R75D).
T7 construct: full-length; C-terminal TEV site-eGFP-8xHis, GFP/His cut by TEV for purified protein; HEK293S GnTI- (BacMam), GDN-solubilised homoheptamer; transiently transfected HEK293 for patch clamp
T7 sequence (Q96RD7 whole entry W74R/R75D): as the sequence (Q96RD7 whole entry W74R/R75D) above
Put plainly: whole-cell patch clamp, transfected HEK293. It counts as cell-based. To be noted: pH 7.4, 23 °C; 100 µM in bath.

Data set [8] deals with T2, PANX1 (PANX1WT). Briefly: whole-cell patch clamp, transfected HEK293. Particulars: pH 7.4, 23 °C; 100 µM in bath. The class given is cell-based.
Data set [9] has as its target T4, PANX3 (PANX3WT). Briefly: whole-cell patch clamp, transfected HEK293. The class given is cell-based. To be noted: pH 7.4, 23 °C; 100 µM in bath.
Data set [10] deals with the molecule itself. Put plainly: cryo-EM structure; purified channel in GDN detergent, 25 mM Tris pH 8.0, 100 mM KCl, 1% glycerol, 5 mg/ml; 1 mM ATP added for PANX3; C7 symmetry imposed.

T6 sequence (Q96RD7 whole entry R75A): as the sequence (Q96RD7 whole entry W74R/R75D) above, with R74W, D75A counted along it

For `Nc1ncnc2c1ncn2[C@@H]1O[C@H](CO[P@](=O)(O)O[P@](=O)(O)O[P@@](=O)(O)S)[C@@H](O)[C@H]1O` [ATP-γS], the Kd on PANX1 (PANX1WT) [1] stood at 67 ± 17 µM; on PANX1 (PANX1WT) [2] it was 186 ± 70 µM; on PANX1 (PANX1WT) [3] (read-out: apparent binding affinity), 18 ± 4 µM; on PANX3 (PANX3WT) [4] it was 69 µM; at PANX1 (PANX1WT) [5] it was 94 ± 15 µM; at PANX1 (PANX1WT) [6], 114 ± 28 µM.

Regarding `Nc1ncnc2c1ncn2[C@@H]1O[C@H](COP(=O)(O)OP(=O)(O)OP(=O)(O)O)[C@@H](O)[C@H]1O` [ATP], the Kd at PANX1 (PANX1WT) [3] (read-out: affinity) came to 21 ± 11 µM.

`CC1(C)[C@@H](OC(=O)CCC(=O)O)CC[C@]2(C)[C@H]3C(=O)C=C4[C@@H]5C[C@@](C)(C(=O)O)CC[C@]5(C)CC[C@@]4(C)[C@]3(C)CC[C@@H]12` [carbenoxolone]: the “inhibition of currents at 100 μM” value at PANX1 (PANX1WT) [7] is recorded as “decreased inhibition of PANX1WR/RD currents with CBX compared to PANX1WT”; at PANX1 (PANX1WT) [8] it was “inhibition of PANX1R217H currents by CBX similar to PANX1WT”; against PANX3 (PANX3WT) [9] it was “We observe weaker CBX sensitivity in PANX3, in comparison to PANX1”.

B1: human pannexin 3 (PANX3), full length (natural protein, UniProt Q96QZ0 1-392, looked up)
chain: T4 sequence (Q96QZ0 1-392)
modifications: N-acetylglucosamine (NAG) at N71
notes: Pannexin 3, human, UniProt Q96QZ0, full length (392 residues); C-terminal TEV site (ENLYFQ) lies between the protein and eGFP-8xHis; residues of the site may be left after cleavage; Residues 1-24, 160-185 and 373-392 are not seen in the map; also called PANX3WT; source: HEK293S GnTI- cells, BacMam virus, purified (Ni-NTA, TEV cleavage, SEC) in GDN; not shown: eGFP, C-terminal, cleaved; 8x His, …
Consider B1, for which the “stoichiometry N” value in data set [10] amounted to 7.

B2: human pannexin 1 (PANX1), full length, wild type (natural protein, UniProt Q96RD7 1-426, looked up)
chain: MAIAQLATEYVFSDFLLKEPTEPKFKGLRLELAVDKMVTCIAVGLPLLLISLAFAQEISIGTQISCFSPSSFSWRQAAFVDSYCWAAVQQKNSLQSESGNLPLWLHKFFPYILLLFAILLYLPPLFWRFAAAPHICSDLKFIMEELDKVYNRAIKAAKSARDLDMRDGACSVPGVTENLGQSLWEVSESHFKYPIVEQYLKTKKNSNNLIIKYISCRLLTLIIILLACIYLGYYFSLSSLSDEFVCSIKSGILRNDSTVPDQFQCKLIAVGIFQLLSVINLVVYVLLAPVVVYTLFVPFRQKTDVLKVYEILPTFDVLHFKSEGYNDLSLYNLFLEENISEVKSYKCLKVLENIKSSGQGIDPMLLLTNLGMIKMDVVDGKTPMSAEMREEQGNQTAELQGMNIDSETKANNGEKNARQRLLDSSC
notes: Pannexin 1, human, UniProt Q96RD7, full length; C-terminal TEV site (ENLYFQ) lies between the protein and eGFP-8xHis; residues of the site may be left after cleavage; Only a map (no model) was deposited; also called PANX1WT; source: HEK293S GnTI- cells, BacMam virus, purified (Ni-NTA, TEV cleavage, SEC) in GDN; not shown: eGFP, C-terminal, cleaved; 8x His, C-terminal, cleaved
For the molecule B2, the “stoichiometry N” value in [10] was 7.

B3: human pannexin 1 germline mutant R217H (natural protein, UniProt Q96RD7 1-426, looked up)
chain: B2 chain with R217H
notes: Pannexin 1, human, UniProt Q96RD7, full length, with the germline substitution R217H (TM3); TEV site residues may be left after cleavage; also called PANX1_(R217H); source: HEK293S GnTI- cells, BacMam virus, purified (Ni-NTA, TEV cleavage, SEC) in GDN; not shown: eGFP, C-terminal, cleaved; 8x His, C-terminal, cleaved
Regarding B3, the binding result in data set [10] is “binds”.

B4: human pannexin 1 double mutant W74R/R75D (natural protein, UniProt Q96RD7 1-426, looked up)
chain: B2 chain with W74R, R75D
notes: Pannexin 1, human, UniProt Q96RD7, full length, with W74R and R75D; TEV site residues may be left after cleavage; also called PANX1_(WR/RD); PANX1 W74R/R75D; source: HEK293S GnTI- cells, BacMam virus, purified (Ni-NTA, TEV cleavage, SEC) in GDN; not shown: eGFP, C-terminal, cleaved; 8x His, C-terminal, cleaved
Take B4: the binding result in [10] was “binds”.
